Measured values published in US6677310B1, “Ring-expanded nucleosides and nucleotides” (Nabi, priority 1999, dated 2004).

Columns and labels:
Format in all cases: cell-based, human
MDA-MB- 231/ATCC = assay: SRB anti-cancer assay, Breast Cancer; settings: MDA-MB- 231/ATCC (Breast Cancer), 48 h
SW-620 = assay: SRB anti-cancer assay, Colon Cancer; settings: SW-620 (Colon Cancer), 48 h
EKVX = EKVX (Non-Small Cell Lung Cancer), 48 h
SF-268 = assay: SRB anti-cancer assay, CNS Cancer; settings: SF-268 (CNS Cancer), 48 h
ACHN = assay: SRB anti-cancer assay, Renal Cancer; settings: 48 h
SNB-75 = assay: SRB anti-cancer assay, CNS Cancer; settings: SNB-75 (CNS Cancer), 48 h
SK-OV-3 = assay: SRB anti-cancer assay, Ovarian Cancer; settings: SK-OV-3 (Ovarian Cancer), 48 h
786-0 = assay: SRB anti-cancer assay, Renal Cancer; settings: 786-0 (Renal Cancer), 48 h
OVCAR-3 = assay: SRB anti-cancer assay, Ovarian Cancer; settings: OVCAR-3 (Ovarian Cancer), 48 h
HOP-62 = HOP-62 (Non-Small Cell Lung Cancer), 48 h
SK-MEL-28 = assay: SRB anti-cancer assay, Melanoma; settings: SK-MEL-28 (Melanoma), 48 h
SR = assay: SRB anti-cancer assay, Leukemia; settings: 48 h
CCRF-CEM = assay: SRB anti-cancer assay, Leukemia; settings: 48 h
A549/ATCC = A549/ATCC (Non-Small Cell Lung Cancer), 48 h
NCI-H226 = NCI-H226 (Non-Small Cell Lung Cancer), 48 h
M14 = assay: SRB anti-cancer assay, Melanoma; settings: 48 h
RPMI-8226 = assay: SRB anti-cancer assay, Leukemia; settings: RPMI-8226 (Leukemia), 48 h
OVCAR-8 = assay: SRB anti-cancer assay, Ovarian Cancer; settings: OVCAR-8 (Ovarian Cancer), 48 h
NCI-H23 = NCI-H23 (Non-Small Cell Lung Cancer), 48 h
CAKI-1 = assay: SRB anti-cancer assay, Renal Cancer; settings: CAKI-1 (Renal Cancer), 48 h
HCT-116 = assay: SRB anti-cancer assay, Colon Cancer; settings: HCT-116 (Colon Cancer), 48 h
UACC-62 = assay: SRB anti-cancer assay, Melanoma; settings: UACC-62 (Melanoma), 48 h
HCT-15 = assay: SRB anti-cancer assay, Colon Cancer; settings: HCT-15 (Colon Cancer), 48 h
SNB-19 = assay: SRB anti-cancer assay, CNS Cancer; settings: SNB-19 (CNS Cancer), 48 h
NCI-H460 = NCI-H460 (Non-Small Cell Lung Cancer), 48 h
NCI/ADR-RES = assay: SRB anti-cancer assay, Breast Cancer; settings: 48 h
OVCAR-5 = assay: SRB anti-cancer assay, Ovarian Cancer; settings: OVCAR-5 (Ovarian Cancer), 48 h
T-47D = assay: SRB anti-cancer assay, Breast Cancer; settings: T-47D (Breast Cancer), 48 h
DU-145 = assay: SRB anti-cancer assay, Prostate Cancer; settings: DU-145 (Prostate Cancer), 48 h
[1] = read-out: LC50 (the source's name)

N=c1[nH]c(=O)c2ncn([C@@H]3O[C@H](CO)[C@@H](O)[C@H]3O)c2c(=O)[nH]1 [Compound 14-1, 6-Imino-6H-1-β-D-ribofuranosyl-4,5,7,8-tetrahydroimidazo[4,5-e][1,3]diazepine-4,8-dione]
> 100 µM: CC50 (MDA-MB- 231/ATCC; [1]) | GI50 (SW-620) | CC50 (SW-620; [1]) | GI50 (EKVX) | CC50 (EKVX; [1]) | GI50 (SF-268) | CC50 (SF-268; [1]) | GI50 (ACHN) | CC50 (ACHN; [1]) | LC50 (concentration killing 50% of cells) (SNB-75) | GI50 (SK-OV-3) | CC50 (SK-OV-3; [1]) | GI50 (786-0) | CC50 (786-0; [1]) | GI50 (OVCAR-3) | CC50 (OVCAR-3; [1]) | GI50 (HOP-62) | LC50 (concentration for 50% net cell kill) (HOP-62) | GI50 (SK-MEL-28) | LC50 (SK-MEL-28) | GI50 (SR) | LC50 (concentration killing 50% of cells) (SR) | GI50 (CCRF-CEM) | CC50 (CCRF-CEM; [1]) | GI50 (A549/ATCC) | CC50 (A549/ATCC; [1]) | GI50 (NCI-H226) | CC50 (NCI-H226; [1]) | GI50 (M14) | CC50 (M14; [1]) | GI50 (RPMI-8226) | CC50 (RPMI-8226; [1]) | GI50 (OVCAR-8) | LC50 (50% lethal concentration) (OVCAR-8) | GI50 (NCI-H23) | CC50 (NCI-H23; [1]) | GI50 (CAKI-1) | CC50 (CAKI-1; [1]) | GI50 (HCT-116) | CC50 (HCT-116; [1]) | GI50 (UACC-62) | CC50 (UACC-62; [1]) | GI50 (HCT-15) | CC50 (HCT-15; [1]) | GI50 (SNB-19) | CC50 (SNB-19; [1]) | GI50 (NCI-H460) | CC50 (NCI-H460; [1]) | GI50 (NCI/ADR-RES) | CC50 (NCI/ADR-RES; [1]) | GI50 (OVCAR-5) | CC50 (OVCAR-5; [1]) | GI50 (T-47D) | CC50 (T-47D; [1]) | GI50 (DU-145) | CC50 (DU-145; [1])
>100 µM: TGI (MDA-MB- 231/ATCC) | TGI (SW-620) | TGI (EKVX) | TGI (SF-268) | TGI (ACHN) | TGI (SNB-75) | TGI (SK-OV-3) | TGI (786-0) | TGI (OVCAR-3) | TGI (HOP-62) | TGI (SK-MEL-28) | TGI (SR) | TGI (CCRF-CEM) | TGI (A549/ATCC) | TGI (NCI-H226) | TGI (M14) | TGI (RPMI-8226) | TGI (OVCAR-8) | TGI (NCI-H23) | TGI (CAKI-1) | TGI (HCT-116) | TGI (UACC-62) | TGI (HCT-15) | TGI (SNB-19) | TGI (NCI-H460) | TGI (NCI/ADR-RES) | TGI (OVCAR-5) | TGI (T-47D) | TGI (DU-145)
